From patent US20060069132A1, “Azolecarboxamide herbicides” (priority 2004, published 2006)

Legend:
morningglory = assay: Test B pre-/postemergence herbicide test; assay type: in vivo, Ipomoea coccinea
Procedure, shortened: (§1)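 Flooded paddy rice and barnyardgrass were treated at the 2-leaf stage; upland plantings received compound either on sown seed or on 1- to 4-leaf seedlings. All were kept 13–15 days in a greenhouse and scored visually, 0–100, relative to untreated plants.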

large crabgrass = assay: Test B pre-/postemergence herbicide test; assay type: in vivo, Digitaria sanguinalis
Procedure, shortened: (§2)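 Response was scored visually 13 to 15 days after treatment against untreated greenhouse controls, 0 meaning no effect and 100 complete control. Formulations (solvent mixture plus surfactant) went onto soil after planting, onto foliage of 1- to 4-leaf plants, and onto 2-leaf plants in a flooded paddy set including rice and barnyardgrass.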

velvetleaf = assay: Test B pre-/postemergence herbicide test; assay type: in vivo, Abutilon theophrasti
Procedure, shortened: as §2

Surinam grass = assay: Test B pre-/postemergence herbicide test; assay type: in vivo, Urochloa decumbens
Procedure, shortened: as §2

corn = assay: Test B pre-/postemergence herbicide test; assay type: in vivo, Zea mays
Procedure, shortened: as §2

lambsquarters = assay: Test B pre-/postemergence herbicide test; assay type: in vivo, Chenopodium album
Procedure, shortened: as §2

rice = assay: Test B flooded paddy test; assay type: in vivo, Oryza sativa; conditions: 1000 g ai/ha, scale 0 to 100 (0 no effect, 100 complete control)
Procedure, shortened: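 Postemergence plants were sprayed with formulated test chemicals at 2 to 18 cm height (1- to 4-leaf stage); paddy species were grown to the 2-leaf stage. After 13 to 15 days in a greenhouse, injury was rated visually against untreated controls on a 0–100 scale (0 = no effect, 100 = complete control).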

cocklebur = assay: Test B pre-/postemergence herbicide test; assay type: in vivo, Xanthium strumarium
Procedure, shortened: as §1

barnyardgrass [1] = assay: Test B pre-/postemergence herbicide test; assay type: in vivo, Echinochloa crus-galli
Procedure, shortened: as §1

ducksalad = assay: Test B flooded paddy test; assay type: in vivo, Heteranthera limosa; conditions: 1000 g ai/ha, scale 0 to 100 (0 no effect, 100 complete control)
Procedure, shortened: (§3)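 After treating 2-leaf paddy plants or 2–18 cm postemergence plants (1 to 4 leaves) with formulated chemical, researchers kept them in a greenhouse for 13–15 days. Effects were judged visually versus controls: 0 indicates none, 100 total control.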

giant foxtail = assay: Test B pre-/postemergence herbicide test; assay type: in vivo, Setaria faberi
Procedure, shortened: as §2

barnyardgrass [2] = assay: Test B flooded paddy test; assay type: in vivo, Echinochloa crus-galli; conditions: 1000 g ai/ha, scale 0 to 100 (0 no effect, 100 complete control)
Procedure, shortened: as §3

wild oat = assay: Test B postemergence herbicide test; assay type: in vivo, Avena fatua
Procedure, shortened: (§4)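 Plants grow to 1- to 4-leaf stage (2–18 cm) for postemergence spraying, or to 2-leaf stage for the paddy test. Formulated compound is applied. Greenhouse holding lasts 13–15 days. Response is scored visually relative to controls, 0 no effect to 100 complete control; a dash means no result.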

pigweed = assay: Test B pre-/postemergence herbicide test; assay type: in vivo, Amaranthus retroflexus
Procedure, shortened: as §2

wheat = assay: Test B postemergence herbicide test; assay type: in vivo, Triticum aestivum; parameters: key to Wheat plant response rating: 0 = no effect, 100 = complete control
Procedure, shortened: as §4

[3] = 125 g ai/ha; 0 = no effect, 100 = complete control; preemergence
[4] = 125 g ai/ha; visual rating, scale 0 (no effect) to 100 (complete control); postemergence
[5] = 500 g ai/ha; visual rating, 0 = no effect, 100 = complete control; preemergence
[6] = postemergence, 500 g ai/ha; scale 0 to 100, 0 is no effect, 100 is complete control
[7] = 500 g ai/ha; visual rating 0-100, 0 no effect, 100 complete control; preemergence
[8] = postemergence, 125 g ai/ha; visual rating, scale 0 (no effect) to 100 (complete control)
[9] = postemergence, 500 g ai/ha; visual rating, scale 0 (no effect) to 100 (complete control)
[10] = preemergence, 125 g ai/ha; 0 to 100 scale, 0 is no effect, 100 is complete control

SMILES: CCn1nc(C(C)(C)C)cc1C(=O)Nc1cncc(C(=O)N2CC=CC2)n1 [Compound 290]
- Morningglory plant response rating (0 to 100 scale) (morningglory; [3]): 0
- Morningglory plant response rating (morningglory; [4]): 0
- Plant response rating, Morningglory (morningglory; [5]): 0
- Morningglory plant response rating (morningglory; [6]): 0
- Crabgrass, Large plant response rating (0 to 100 scale) (large crabgrass; [3]): 0
- Crabgrass, Large plant response rating (large crabgrass; [4]): 0
- Plant response rating, Crabgrass, Large (large crabgrass; [5]): 90
- Crabgrass, Large plant response rating (large crabgrass; [6]): 0
- Velvetleaf plant response rating (velvetleaf; [4]): 0
- Plant response rating, Velvetleaf (velvetleaf; [5]): 0
- Velvetleaf plant response rating (velvetleaf; [6]): 10
- Surinam Grass plant response rating (0 to 100 scale) (Surinam grass; [3]): 0
- Surinam Grass plant response rating (Surinam grass; [4]): 0
- Plant response rating, Surinam Grass (Surinam grass; [5]): 10
- Surinam Grass plant response rating (Surinam grass; [6]): 30
- Corn plant response rating (0 to 100 scale) (corn; [3]): 0
- Corn plant response rating (corn; [4]): 0
- Plant response rating, Corn (corn; [5]): 0
- Corn plant response rating (corn; [6]): 10
- Lambsquarters plant response rating (0 to 100 scale) (lambsquarters; [3]): 100
- Lambsquarters plant response rating (lambsquarters; [4]): 10
- Plant response rating, Lambsquarters (lambsquarters; [5]): 100
- Lambsquarters plant response rating (lambsquarters; [6]): 20
- Rice plant response rating (rice): 60
- Cocklebur plant response rating (0 to 100 scale) (cocklebur; [3]): 0
- Cocklebur plant response rating (cocklebur; [4]): 0
- Plant response rating, Cocklebur (cocklebur; [5]): 0
- Cocklebur plant response rating (cocklebur; [6]): 10
- Barnyardgrass plant response rating (0 to 100 scale) (barnyardgrass [1]; [3]): 0
- Barnyardgrass plant response rating (barnyardgrass [1]; [4]): 0
- Plant response rating, Barnyardgrass (barnyardgrass [1]; [5]): 80
- Barnyardgrass plant response rating (barnyardgrass [1]; [6]): 0
- Ducksalad plant response rating (ducksalad): 70
- Foxtail, Giant plant response rating (0 to 100 scale) (giant foxtail; [3]): 10
- Foxtail, Giant plant response rating (giant foxtail; [4]): 20
- Plant response rating, Foxtail, Giant (giant foxtail; [5]): 80
- Foxtail, Giant plant response rating (giant foxtail; [6]): 60
- Barnyardgrass plant response rating (barnyardgrass [2]): 70
- Oat, Wild plant response rating (wild oat; [4]): 20
- Oat, Wild plant response rating (wild oat; [6]): 40
- Pigweed plant response rating (0 to 100 scale) (pigweed; [3]): 0
- Pigweed plant response rating (pigweed; [4]): 10
- Plant response rating, Pigweed (pigweed; [5]): 100
- Pigweed plant response rating (pigweed; [6]): 10
- Wheat plant response rating (wheat; [4]): 20
- Wheat plant response rating (wheat; [6]): 30

SMILES: C#CCNC(=O)c1cccc(NC(=O)c2cc(C(C)(C)C)nn2CC)n1 [Compound 147]
- Plant response rating, Morningglory (morningglory; [7]): 30
- Morningglory plant response rating (morningglory; [8]): 0
- Morningglory plant response rating (morningglory; [9]): 30
- Plant response rating, Morningglory (morningglory; [10]): 0
- Plant response rating, Crabgrass, Large (large crabgrass; [7]): 100
- Crabgrass, Large plant response rating (large crabgrass; [8]): 20
- Crabgrass, Large plant response rating (large crabgrass; [9]): 70
- Plant response rating, Crabgrass, Large (large crabgrass; [10]): 90
- Plant response rating, Velvetleaf (velvetleaf; [7]): 80
- Velvetleaf plant response rating (velvetleaf; [8]): 60
- Velvetleaf plant response rating (velvetleaf; [9]): 60
- Plant response rating, Velvetleaf (velvetleaf; [10]): 30
- Plant response rating, Surinam Grass (Surinam grass; [7]): 80
- Surinam Grass plant response rating (Surinam grass; [8]): 20
- Surinam Grass plant response rating (Surinam grass; [9]): 30
- Plant response rating, Surinam Grass (Surinam grass; [10]): 20
- Plant response rating, Corn (corn; [7]): 10
- Corn plant response rating (corn; [8]): 10
- Corn plant response rating (corn; [9]): 30
- Plant response rating, Corn (corn; [10]): 10
- Plant response rating, Lambsquarters (lambsquarters; [7]): 100
- Lambsquarters plant response rating (lambsquarters; [8]): 80
- Lambsquarters plant response rating (lambsquarters; [9]): 90
- Plant response rating, Lambsquarters (lambsquarters; [10]): 90
- Rice plant response rating (rice; visual rating, 13 to 15 days): 50
- Plant response rating, Cocklebur (cocklebur; [7]): 10
- Cocklebur plant response rating (cocklebur; [8]): 0
- Cocklebur plant response rating (cocklebur; [9]): 80
- Plant response rating, Cocklebur (cocklebur; [10]): 0
- Plant response rating, Barnyardgrass (barnyardgrass [1]; [7]): 90
- Barnyardgrass plant response rating (barnyardgrass [1]; [8]): 20
- Barnyardgrass plant response rating (barnyardgrass [1]; [9]): 30
- Plant response rating, Barnyardgrass (barnyardgrass [1]; [10]): 70
- Ducksalad plant response rating (ducksalad; visual rating, 13 to 15 days): 80
- Plant response rating, Foxtail, Giant (giant foxtail; [7]): 100
- Foxtail, Giant plant response rating (giant foxtail; [8]): 30
- Foxtail, Giant plant response rating (giant foxtail; [9]): 40
- Plant response rating, Foxtail, Giant (giant foxtail; [10]): 70
- Barnyardgrass plant response rating (barnyardgrass [2]; visual rating, 13 to 15 days): 60
- Oat, Wild plant response rating (wild oat; [8]): 0
- Oat, Wild plant response rating (wild oat; [9]): 30
- Plant response rating, Pigweed (pigweed; [7]): 100
- Pigweed plant response rating (pigweed; [8]): 80
- Pigweed plant response rating (pigweed; [9]): 90
- Plant response rating, Pigweed (pigweed; [10]): 100
- Wheat plant response rating (wheat; [9]): 20

SMILES: CCNC(=O)c1ccc(F)c(NC(=O)c2cn(C(C)(C)C)nc2CC)c1 [Compound 193]
- Morningglory plant response rating (0 to 100 scale) (morningglory; [3]): 40
- Plant response rating, Morningglory (morningglory; [7]): 100
- Morningglory plant response rating (morningglory; [8]): 30
- Morningglory plant response rating (morningglory; [9]): 70
- Crabgrass, Large plant response rating (0 to 100 scale) (large crabgrass; [3]): 100
- Plant response rating, Crabgrass, Large (large crabgrass; [7]): 100
- Crabgrass, Large plant response rating (large crabgrass; [8]): 10
- Crabgrass, Large plant response rating (large crabgrass; [9]): 10
- Velvetleaf plant response rating (0 to 100 scale) (velvetleaf; [3]): 70
- Plant response rating, Velvetleaf (velvetleaf; [7]): 100
- Velvetleaf plant response rating (velvetleaf; [8]): 50
- Velvetleaf plant response rating (velvetleaf; [9]): 70
- Surinam Grass plant response rating (0 to 100 scale) (Surinam grass; [3]): 80
- Plant response rating, Surinam Grass (Surinam grass; [7]): 100
- Surinam Grass plant response rating (Surinam grass; [8]): 10
- Surinam Grass plant response rating (Surinam grass; [9]): 10
- Corn plant response rating (0 to 100 scale) (corn; [3]): 70
- Plant response rating, Corn (corn; [7]): 100
- Corn plant response rating (corn; [8]): 10
- Corn plant response rating (corn; [9]): 20
- Lambsquarters plant response rating (0 to 100 scale) (lambsquarters; [3]): 100
- Plant response rating, Lambsquarters (lambsquarters; [7]): 100
- Lambsquarters plant response rating (lambsquarters; [8]): 90
- Lambsquarters plant response rating (lambsquarters; [9]): 90
- Rice plant response rating (rice; visual rating, 13 to 15 days): 80
- Cocklebur plant response rating (0 to 100 scale) (cocklebur; [3]): 10
- Plant response rating, Cocklebur (cocklebur; [7]): 70
- Cocklebur plant response rating (cocklebur; [8]): 20
- Cocklebur plant response rating (cocklebur; [9]): 70
- Barnyardgrass plant response rating (0 to 100 scale) (barnyardgrass [1]; [3]): 90
- Plant response rating, Barnyardgrass (barnyardgrass [1]; [7]): 100
- Barnyardgrass plant response rating (barnyardgrass [1]; [8]): 0
- Barnyardgrass plant response rating (barnyardgrass [1]; [9]): 10
- Ducksalad plant response rating (ducksalad; visual rating, 13 to 15 days): 90
- Foxtail, Giant plant response rating (0 to 100 scale) (giant foxtail; [3]): 100
- Plant response rating, Foxtail, Giant (giant foxtail; [7]): 100
- Foxtail, Giant plant response rating (giant foxtail; [8]): 10
- Foxtail, Giant plant response rating (giant foxtail; [9]): 20
- Barnyardgrass plant response rating (barnyardgrass [2]; visual rating, 13 to 15 days): 80
- Oat, Wild plant response rating (wild oat; [8]): 0
- Oat, Wild plant response rating (wild oat; [9]): 0
- Pigweed plant response rating (0 to 100 scale) (pigweed; [3]): 100
- Plant response rating, Pigweed (pigweed; [7]): 100
- Pigweed plant response rating (pigweed; [8]): 20
- Pigweed plant response rating (pigweed; [9]): 60
- Wheat plant response rating (wheat; [8]): 10
- Wheat plant response rating (wheat; [9]): 10
